Values of other authors as cited in US20220125854A1, “PREPARATION AND EXTENDED CULTURE OF VASCULAR ENDOTHELIAL PROGENITOR CELL” (PUBLIC UNIVERSITY CORPORATION NAGOYA CITY UNIVERSITY, priority 2019, published 2022).

What was measured:
Settings in all cases: report
HUVECs = system: HUVECs
[1] = system: ECs derived from iPS cells
[2] = system: ECs derived from ES cells

Cc1c[nH]c(-c2cnc(NCCNc3ccc(C#N)cn3)nc2-c2ccc(Cl)cc2Cl)n1 [CHIR 99021]
proliferation potency of HUVECs (HUVECs): enhances the proliferation potency

C[C@@H](N)[C@H]1CC[C@H](C(=O)Nc2ccncc2)CC1 [Y-27632]
proliferation potency of ECs derived from iPS cells [1]: enhancing the proliferation potency

NC(=O)c1ccc(-c2nc(-c3ccccn3)c(-c3ccc4c(c3)OCO4)[nH]2)cc1 [SB 43152]
proliferation potency of ECs derived from ES cells [2]: enhances the proliferation potency
